Results published in patent US8420634B2, “Amidine, thiourea and guanidine derivatives of 2-aminobenzothiazoles and aminobenzothiazines for their use as pharmacological agents for the treatment of neurodegenerative pathologies” (Rottapharm S.p.A., priority 2007, dated 2013).
Where a name gives a salt, the structure may show the parent alone.

Experiments:
cortical slices [1] = assay: in vitro ischemia (oxygen-glucose deprivation/re-oxygenation): glutamate released during re-oxygenation; type: cell-based; settings: rat cortical slices
Procedure: (§1) Said in vitro ischemia model is generally accepted as a comprehensive model for the study and selection of products with neuroprotective activity.
(§2) Male Sprague-Dawley rats (350-450 g; Charles River Italia, Calco, Italy) have been sacrificed following anaesthesia (i.p. injection of 30 mg/kg ketamine hydrochloride and 8 mg/kg xylazine hydrochloride). The brain is rapidly removed and placed in aCSF (artificial Cerebro Spinal Fluid, composition expressed in mM: 120 NaCl, 2.5 KCl, 1.3 MgCl2, 1.0 NaH2PO4, 1.5 CaCl2, 26 NaHCO3, 11 glucose, saturated with 95% O2 −5% CO2, with a final pH of 7.4, osmolarity 285-290 mOsmol). The cortex is removed and sectioned into slices 400 μm thick.
The slices are then maintained in oxygenated aCSF supplemented with 400 μM ascorbic acid for 1 hour at room temperature.
Cortical slices total weight 33.6±2.6 mg, n=10) are incubated at 37° C., in 2 ml aCSF under a flow of 95% O2/5% CO2 for a period of 30 minutes. Oxygen-glucose deprivation is then implemented for 30 minutes by incubating in aCSF where the glucose has been substituted by sucrose and the oxygen mix air flow replaced with 95% N2/5% CO2. After the period of oxygen-glucose deprivation, the slices are placed in oxygenated aCSF for 90 minutes (re-oxygenation). In the treated samples, the compound of formula I is dissolved in aCSF at the concentrations described.
(§3) Neuronal damage is assessed quantitatively by measuring the glutamate and lactate dehydrogenase (LDH) released into the aCSF during the period of re-oxygenation. In particular, glutamate is measured fluorimetrically (excitation at 366 nm; emission at 450 nm) using the conversion of NAD^+ to NADH catalysed by glutamate dehydrogenase (Eilers et al., 1999) while LDH activity is determined spectrophotometrically by measuring the reduction in absorbance at 340 nm via the oxidation of NADH to NAD^+ (Gay et al., 1968).
All experiments have been conducted using slices obtained from at least 4 different rats. Data is reported as the S.E.M. and “n” is defined as the sample number. Data for glutamate and LDH activity is expressed as nmol/mg tissue and U/mg tissue, respectively. One unit (U) of LDH activity is defined as the correspondent yielding one micromole of lactate in one minute. Statistical analyses have been conducted using ANOVA followed by post-hoc Dunnett tests (GraphPad INSTAT v3.00, GraphPad Software, San Diego, Calif., USA).

cortical slices [2] = assay: in vitro ischemia (oxygen-glucose deprivation/re-oxygenation): LDH activity released during re-oxygenation; type: cell-based; settings: rat cortical slices, concentrations of 0.1-1 μM
Procedure: as §1
as §2, with “thick. […]” for “thick.”
as §3
All experiments have been conducted using slices obtained from at least 4 different rats. […] Data for glutamate and LDH activity is expressed as nmol/mg tissue and U/mg tissue, respectively. […]

## CCNC(=N)Nc1nc2ccc(OC(F)(F)F)cc2s1 [Example 15, 1-Ethyl-3-[6-(trifluoromethoxy)benzothiazol-2-yl]guanidine]
other
  melting point: 127 to 129 °C

## CCNC(=S)NC1=Nc2ccc(OC(F)(F)F)cc2CS1 [Example 31, 1-Ethyl-3-[6-(trifluoromethoxy)-4H-3,1-benzothiazin-2-yl]thiourea]
other
  melting point: 169 to 172 °C

## FC(F)(F)Oc1ccc2nc(NC(=S)Nc3ccccc3)sc2c1 [Example 13, 1-Phenyl-3-[6-(trifluoromethoxy)benzothiazol-2-yl]thiourea]
other
  melting point: 234 °C

## CCCNC(=S)NC1=Nc2ccc(OC(F)(F)F)cc2CS1 [Example 32, 1-Propyl-3-[6-(trifluoromethoxy)-4H-3,1-benzothiazin-2-yl]thiourea]
other
  melting point: 148 to 151 °C

## C/C(=N\C1=Nc2ccccc2SC1)N(C)C (as salt: oxalate) [Example 22, N′-(2H-1,4-benzothiazin-3-yl)-N,N-dimethylacetamidine]
other
  melting point: 120 to 122 °C (dec.)

## C/C(=N\C1=Nc2ccccc2CS1)N(C)C [Example 18, N′-(4H-3,1-benzothiazin-2-yl)-N,N-dimethylacetamidine]
Cortical slices [1]; concentrations of 0.1-1 μM
  reduction in glutamate release: remarkable reduction (a reduction in glutamic acid release and/or LDH activity to a value comprised of between 10% and 50% of that of the control sample)

## CN/C(C)=N/C1=Nc2ccccc2SC1 (as salt: oxalate) [Example 21, N′-(2H-1,4-benzothiazin-3-yl)-N-methylacetamidine]
other
  melting point: 164 to 166 °C (dec.)

## CN/C(C)=N/C1=Nc2ccccc2CS1 [Example 17, N′-(4H-3,1-benzothiazin-2-yl)-N-methylacetamidine]
Cortical slices [1]; concentrations of 0.1-1 μM
  reduction in glutamate release: remarkable reduction (a reduction in glutamic acid release and/or LDH activity to a value comprised of between 10% and 50% of that of the control sample)

## C/C(=N/c1nc2ccc(OC(F)(F)F)cc2s1)N(C)C [Example 5, N,N-dimethyl-N′-[6-(trifluoromethoxy)benzothiazol-2-yl]acetamidine]
Cortical slices [1]; concentrations of 0.1-1 μM
  reduction in glutamate release: remarkable reduction (a reduction in glutamic acid release and/or LDH activity to a value comprised of between 10% and 50% of that of the control sample)

## CC(C)NC(=S)Nc1nc2ccc(OC(F)(F)F)cc2s1 [Example 11, 1-Isopropyl-3-[6-(trifluoromethoxy)benzothiazol-2-yl]thiourea]
other
  melting point: 242 °C

## CN/C(C)=N/C1=Nc2ccccc2SC1 [Example 21, N′-(2H-1,4-benzothiazin-3-yl)-N-methylacetamidine]
Cortical slices [1]; concentrations of 0.1-1 μM
  reduction in glutamate release: remarkable reduction (a reduction in glutamic acid release and/or LDH activity to a value comprised of between 10% and 50% of that of the control sample)

## CCCNC(=S)NC1=Nc2ccccc2CS1 [Example 30, 1-(4H-3,1-benzothiazin-2-yl)-3-propylthiourea]
other
  melting point: 180 to 184 °C

## CCN(CC)/C(C)=N/C1=Nc2ccccc2CS1 [Example 19, N′-(4H-3,1-benzothiazin-2-yl)-N,N-diethylacetamidine]
Cortical slices [1]; concentrations of 0.1-1 μM
  reduction in glutamate release: remarkable reduction (a reduction in glutamic acid release and/or LDH activity to a value comprised of between 10% and 50% of that of the control sample)

## CCCCNC(=S)Nc1nc2ccc(OC(F)(F)F)cc2s1 [Example 12, 1-Butyl-3-[6-(trifluoromethoxy)benzothiazol-2-yl]thiourea]
Cortical slices [1]; concentrations of 0.1-1 μM
  reduction in glutamate release: remarkable reduction (a reduction in glutamic acid release and/or LDH activity to a value comprised of between 10% and 50% of that of the control sample)
other
  melting point: 211 °C

## CCNC(=S)Nc1nc2ccc(OC(F)(F)F)cc2s1 [Example 9, 1-Ethyl-3-[6-(trifluoromethoxy)benzothiazol-2-yl]thiourea]
Cortical slices [2]
  reduction in LDH activity: remarkable reduction (a reduction in glutamic acid release and/or LDH activity to a value comprised of between 10% and 50% of that of the control sample)
other
  melting point: 199 to 200 °C

## CCNC(=S)NC1=Nc2ccc(OC(F)(F)F)cc2SC1 [Example 33, 1-Ethyl-3-[7-(trifluoromethoxy)-2H-1,4-benzothiazin-3-yl]thiourea]
other
  melting point: 199 to 201 °C

## CCCNC(=N)Nc1nc2ccc(OC(F)(F)F)cc2s1 [Example 16, 1-Propyl-3-[6-(trifluoromethoxy)benzothiazol-2-yl]guanidine]
Cortical slices [1]; concentrations of 0.1-10 μM
  reduction in glutamate release: remarkable reduction (a reduction in glutamic acid release and/or LDH activity to a value comprised of between 10% and 50% of that of the control sample)
other
  melting point: 110 to 111 °C

## Fc1ccc(NC(=S)Nc2nc3ccc(OC(F)(F)F)cc3s2)cc1 [Example 14, 1-(4-Fluorophenyl)3-[6-(trifluoromethoxy)benzothiazol-2-yl]thiourea]
other
  melting point: 207 °C

## CCNC(=S)NC1=Nc2ccccc2CS1 [Example 29, 1-(4H-3,1-benzothiazin-2-yl)-3-ethylthiourea]
other
  melting point: 191 to 196 °C

## CCCNC(=S)Nc1nc2ccc(OC(F)(F)F)cc2s1 [Example 10, 1-Propyl-3-[6-(trifluoromethoxy)benzothiazol-2-yl]thiourea]
other
  melting point: 226 to 228 °C

## C/C(=N\C1=Nc2ccccc2CS1)N(C)C (as salt: oxalate) [Example 18, N′-(4H-3,1-benzothiazin-2-yl)-N,N-dimethylacetamidine]
other
  melting point: 154 to 157 °C (dec.)

## CN/C(C)=N/C1=Nc2ccccc2CS1 (as salt: oxalate) [Example 17, N′-(4H-3,1-benzothiazin-2-yl)-N-methylacetamidine]
other
  melting point: 110 to 113 °C (dec.)

## CCCNC(=S)NC1=Nc2ccc(OC(F)(F)F)cc2SC1 [Example 34, 1-Propyl-3-(7-trifluoromethoxy-2H-1,4-benzothiazin-3-yl)thiourea]
other
  melting point: 180 to 182 °C
